The values below come from publication PMC8741894 (2022).

Assay [1] deals with MN4 (DNA, aptamer) GGCGACAAGGAAAATCCTTCAACGAAGTGGGTCGCC
The experiment in a line: ITC competition. The settings on record: 140 mM NaCl, 5 mM KCl; 20 mM TRIS pH 7.4, 1% DMSO, 15 °C; apparent; ART pre-bound 3:1, competitive binding model.

Assay [2] concerns MN19 (DNA, aptamer) GACAAGGAAAATCCTTCAACGAAGTGGGTC
The experiment in a line: UV melting, 260 nm. The settings on record: 137 mM NaCl, 2.7 mM KCl; PBS pH 7.4, 3% acetonitrile; Tm of complex, free MN19 shows no transition.

The test system of assay [3] is MN4 (DNA, aptamer) GGCGACAAGGAAAATCCTTCAACGAAGTGGGTCGCC
The experiment in a line: ITC. The note with it: 140 mM NaCl, 5 mM KCl, 15 °C.

The test system of assay [4] is MN19 (DNA, aptamer) GACAAGGAAAATCCTTCAACGAAGTGGGTC
Put plainly: ITC. The note with it: 140 mM NaCl, 5 mM KCl; 20 mM TRIS pH 7.4, 2.4% DMSO, 15 °C; site 1 of 2.

For assay [5], the system named is OR7 (DNA, aptamer) CAAGGAAAATCCTTCAACGAAGTGGG
The experiment in a line: ITC. The settings on record: 140 mM NaCl, 5 mM KCl; 20 mM TRIS pH 7.4, 2.4% DMSO, 15 °C; site 1 of 2.

The subject of assay [6] is SS1 (DNA, junction) GGCGACGAGGAAAATCCTTCGACGAAGTAAGTCGCC
Put plainly: ITC. The settings on record: 140 mM NaCl, 5 mM KCl; 20 mM TRIS pH 7.4, 2.4% DMSO, 15 °C; site 1 of 2.

Assay [7] deals with TWJ (DNA, junction) CGTGCAGCGGCTTGCCGGCACTTGTGCTTCTGCACG
Put plainly: ITC. The settings on record: 140 mM NaCl, 5 mM KCl; 20 mM TRIS pH 7.4, 2.4% DMSO, 15 °C; site 1 of 2.

Assay [8] concerns DDD (DNA, duplex) CGCGAATTCGCG/CGCGAATTCGCG
The experiment in a line: ITC. The settings on record: 140 mM NaCl, 5 mM KCl; 20 mM TRIS pH 7.4, 2.4% DMSO, 15 °C; site 1 of 2.

In assay [9] the test system is Hexamer (DNA, duplex) CGTACG/CGTACG. Put plainly: ITC. The note with it: 140 mM NaCl, 5 mM KCl; 20 mM TRIS pH 7.4, 2.4% DMSO, 15 °C; site 1 of 2.
Assay [10] concerns poly-dT (DNA, single strand) TTTTTTTTTTTT
Put plainly: ITC. The note with it: 140 mM NaCl, 5 mM KCl; 20 mM TRIS pH 7.4, 2.4% DMSO, 15 °C; 20 µM nucleic acid, 0.312 mM titrant.

In assay [11] the test system is SRE RNA (RNA, hairpin) GGAGGCUCUGGCAGCUUUC
Put plainly: ITC. The settings on record: 140 mM NaCl, 5 mM KCl; 20 mM TRIS pH 7.4, 2.4% DMSO, 15 °C; 20 µM nucleic acid, 0.312 mM titrant.

Assay [12] has as its system Hybrid DNA/RNA (DNA:RNA, duplex) GACACCUGAUUC/GAATCAGGTGTC
Put plainly: ITC. The settings on record: 140 mM NaCl, 5 mM KCl; 20 mM TRIS pH 7.4, 2.4% DMSO, 15 °C; 20 µM nucleic acid, 0.312 mM titrant.

Assay [13] concerns MN4 (DNA, aptamer) GGCGACAAGGAAAATCCTTCAACGAAGTGGGTCGCC
The experiment in a line: 1H NMR imino titration. The note with it: sodium phosphate, no added NaCl; 20 mM phosphate pH 7.4, 5 °C; slow exchange, shifts near three-way junction.

Assay [14] has the same test system. The experiment in a line: native mass spectrometry with CID. The note with it: 300 mM ammonium acetate; pH 6.8; 10 µM aptamer, 100 µM ART; non-covalent.
Assay [15] relates to MN19-SITS (DNA, aptamer) GACAAGGAAAATCCTTCAACGAAGTGGGTC
Put plainly: photochrome aptamer switch assay (fluorescence decay). The note with it: 140 mM NaCl; 20 mM Tris pH 7.4, 3% DMSO, 20 °C; 0-4.2 µM ART.

As to `C=C[C@H]1CN2CC[C@H]1C[C@H]2[C@H](O)c1ccnc2ccc(OC)cc12`, in [1], the “Kd, app” value is 1.1 ± 0.1 µM. In addition, the Tm in [2] came out at 36.4 ± 1.2 °C.

Regarding `C[C@@H]1CC[C@H]2[C@@H](C)C(=O)O[C@@H]3O[C@@]4(C)CC[C@@H]1[C@]32O4`, the binding result in assay [3] (20 mM TRIS pH 7.4, 1.5% DMSO, 20 µM aptamer, 0.312 mM titrant) is recorded as “no”.

For `C[C@@H]1CC[C@H]2[C@@H](C)C(=O)O[C@@H]3O[C@@]4(C)CC[C@@H]1[C@]32OO4`, the Kd1 was 0.03 ± 0.01 µM in assay [3] (20 mM TRIS pH 7.4, 2.4% DMSO, site 1 of 2); 0.02 ± 0.01 µM in assay [4]; 0.03 ± 0.01 µM in [5]; 0.004 ± 0.002 µM in assay [6]; 0.06 ± 0.02 µM in assay [7]; 0.10 ± 0.03 µM in [8]. The compound further had a Kd1 in [9] of 0.007 ± 0.004 µM. For the same compound, the binding entry in assay [10] is reported as “no”; in [11] it was “no”; in [12] it was “no”; in assay [13], “yes”; in assay [14], “yes”; in assay [15], “yes”. The Tm in assay [2] was 34.8 ± 1.1 °C.
